# In publication PMC10391610, “Survivin prevents the polycomb repressor complex 2 from methylating histone 3 lysine 27” (iScience, 2023):
# Tests used:
# survivin [1] = molecular target: T1, survivin (Homo sapiens, UniProt O15392); assay: PEPperCHIP peptide microarray, survivin interaction; assay type: binding; details: 1 μg/mL survivin
# T1 construct: transferred to the survivin1-142 construct used in the present study; His8 tag (pHIS8 vector, thrombin-cleavable); made in house; host or cells: E. coli BL21(DE3) star
# T1 sequence (O15392 whole entry): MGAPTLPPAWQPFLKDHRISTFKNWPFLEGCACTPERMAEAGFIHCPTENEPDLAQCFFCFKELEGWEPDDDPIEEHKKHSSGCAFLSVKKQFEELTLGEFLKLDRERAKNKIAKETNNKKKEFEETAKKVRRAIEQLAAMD
# From the text: We were looking for potential direct interactions between survivin and short peptide sequences originating from PRC2 subunits and other proteins involved in histone modifications based on the in vivo results. Therefore, we created a peptide microarray of overlapping peptides obtained from EZH2, EED, SUZ12, and JARID2 to investigate how survivin interacts with the activity of the PRC2 complex. These subunits form the core of PRC2, and the interaction of survivin with the PRC2 molecular scaffold indicates a potentially disruptive role for survivin in PRC2 function. The fluorescence signal generated by labeled survivin is compared in Figure 2 as a function of position along the polypeptide chain of PRC2 subunits. Figure S1 depicts the raw fluorescence images. Moreover, the microarray fluorescence intensities projected on the three-dimensional structure of the PRC2 core complex are shown in Figure 3. The whole dataset is deposited at the Zenodo data base.
# The location of survivin on the peptide microarray was clearly correlated with the amino acid content of the peptide at 1 μg/mL survivin concentration. When evaluating how accurate the predictions were, one should keep in mind that the primary and higher-order structures of the peptide were not at all considered in this analysis. Mislabeling peptides is possible for multiple reasons. The smallest fluorescence signal was chosen as the limit of detection and photon-counting errors may cause weak interactions to be undetected at low fluorescence intensities. Moreover, if the fluorescence intensity of experimental duplicates varied by more than 40%, a peptide was classified as non-interacting even if the lack of reproducibility is ambiguous evidence for the lack of interaction. […] Reducing the number of hidden layer perceptrons from 100 (the default value) to 9 had no effect on the classifier’s performance. Even a 15 amino acid peptide segment composition gives a high degree of uniqueness and highly scalable intensity for survivin-peptide interaction. Survivin has a non-globular structure with no deep binding pockets.
# A peptide microarray was designed using the protein sequences from: Cdk1 (P06493), KAT2A/GCN5 (Q92830), SPI1/PU1 (P17947), SUZ12 (Q15022), EED (O75530), JADE3 (Q92613), DIABLO/SMAC (Q9NR28), BOREALIN (Q53HL2), INCENP (Q9NQS7), SGOL1 (Q5FBB7), SGOL2 (Q562F6), EZH2 (Q15910), JARID2 (Q92833), Histone H3 (P68431), AURORAKB (Q96GD4), JADE1 (Q6IE81), JTB (O76095), EVI5 (O60447), RAN (P62826), USP9X (Q93008), C-IAP1 (Q13490), STAT3 (P40763), BRUCE/APOLLON (Q9NR09), XPO1 (O14980), CDX2 (Q99626), Msx2 (P35548), RBM15 (Q96T37), PHF21A (Q96BD5), PHF8 (Q9UPP1), DIDO (Q9BTC0), JADE2 (Q9NQC1) and HASPIN (Q8TF76). The Uniprot ID is shown in parenthesis. The protein sequences were divided into 15 amino acid long peptides with a 10 amino acid overlap. To investigate background interactions with the protein-derived peptides that could interfere with the main assays, one of the PEPperCHIP Peptide Microarrays (PEPperPRINT Gmbh) was pre-staining with the secondary 6x His Tag Antibody DyLight680 antibody at a dilution of 1:1000 and with the monoclonal anti-HA (12CA5)-DyLight800 control antibody at a dilution of 1:1000. Subsequent incubation of other peptide microarray copies with survivin at a concentration of 1 μg/ml in incubation buffer was followed by staining with the secondary 6x His Tag Antibody DyLight680 antibody (Rockland Immunochemicals, Pottstown, PA, USA) and the monoclonal anti-HA (12CA5)-DyLight800 control antibody (Rockland Immunochemicals, Pottstown, PA, USA). The read-out was performed by scanning intensities of 7/7 (red/green). As an internal quality control, HA and His tag control peptides were stained simultaneously to confirm assay quality and to facilitate grid alignment for data quantification. The LI-COR Odyssey Imaging System was used for read-out, and the PepSlide Analyzer was used for quantification of spot intensities and peptide annotation. […]
# survivin [2] = molecular target: T1, survivin; assay: Biolayer interferometry (reverse), immobilized survivin, EZH2 peptide as analyte; assay type: binding; details: peptide 21.2 µM
# Method: Other phases in the reverse experiment follow the same parameters as in non-reverse experiments mentioned above.
# Δλ(t) values were converted to dimensionless quantities by dividing the wavelength shifts with 1 nm prior to the analysis. To develop the model, we tentatively assumed Langmuir’s 1:1 model.[85] The kinetic modelling was performed with the pymc3 python package[66] using a Bayesian model: p(KD,app|lower=10^−15,upper=10^−3)=1/upper−lower p(k−1|lower=10^−20,upper=10)=1/upper−lower k1=k−1/KD,app p(A|lower=10^−6,upper=10)=1/upper−lower p(ε|lower=10^−6,upper=1)=1/upper−lower p(Δλ(0)|μ=⟨Δλi⟩,σ=1/10∑(Δλi−⟨Δλi⟩)^2/n)=1/2πσe^−1/2σ(Δλ(t)−μ)^2;Δλ(0)∈[10^−20,+∞]
# The association and dissociation phases were modelled simultaneously, and the probability of wavelength shift during association phase was modeled as: p(Δλ(t)|μ=Ac/KD,app+c(1−e^−(k1c+k−1)t),σ=ε)=1/2πσe^−1/2σ(Δλ(t)−μ)^2
# The probability of wavelength shift during the dissociation phase was modelled as: p(Δλ(t)|μ=Δλ(0)e^−k−1t,σ=ε)=1/2πσe^−1/2σ(Δλ(t)−μ)^2, where A and k1 are the amplitude and rate constant of the exponential association process, respectively. The concentration of the analyte is c and KD,app is the apparent dissociation constant. The dissociation rate constant is marked with k-1. ε represents the standard deviation of Δλ(t) . […]
sequence,measurement,setting,value
"VELVNALGQYNDDDDDDDGD DPEEREEKQKDLEDHRDDKE [EZH2_172-211, PRC2-derived peptide, EZH2 residues 172–211, synthesized by Biomatik]",Average FI (%),"survivin [1]; anti-His tag DyLight680 read-out, percentage of maximum fluorescence intensity units (64193) per peptide, 15-mer microarray peptides covering the residues",71%
same,Integrated FI,"survivin [1]; in units of the maximum FI per peptide, 15-mer microarray peptides covering the residues",4.28
same,survivin interaction / fluorescence on microarray (in words),survivin [1]; peptide microarray,high survivin-associated fluorescence intensity
same,k1 (association rate constant),survivin [2]; posterior mean ± SD,45 ± 0.59 M⁻¹ s⁻¹
same,A (amplitude of association),"survivin [2]; posterior mean, SD 1.2×10-3",0.13 nm
